Source: patent US12570642B2, “GLP-IR modulating compounds” (Gilead Sciences, Inc., priority 2021, dated 2026)

Target: GLP-1R (Homo sapiens, UniProt P43220)
Test: GLP-1R Activation - cAMP Assay
Assay type: cell-based
Settings: […]; each compound run on one of the two cAMP assays (Assay 1 or Assay 2, not specified)
In short: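 cAMP rise read by HTRF after 30 min agonist exposure (10-point titration, 37 °C) in HBSS/20 mM Hepes/0.1% BSA, following 1 h pre-incubation. Cells: stable GLP-1R CHO line, 1,000/well, seeded overnight. Sigmoidal fit of response vs log concentration gives EC50.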

GLP-1R, sequence (P43220 24-463): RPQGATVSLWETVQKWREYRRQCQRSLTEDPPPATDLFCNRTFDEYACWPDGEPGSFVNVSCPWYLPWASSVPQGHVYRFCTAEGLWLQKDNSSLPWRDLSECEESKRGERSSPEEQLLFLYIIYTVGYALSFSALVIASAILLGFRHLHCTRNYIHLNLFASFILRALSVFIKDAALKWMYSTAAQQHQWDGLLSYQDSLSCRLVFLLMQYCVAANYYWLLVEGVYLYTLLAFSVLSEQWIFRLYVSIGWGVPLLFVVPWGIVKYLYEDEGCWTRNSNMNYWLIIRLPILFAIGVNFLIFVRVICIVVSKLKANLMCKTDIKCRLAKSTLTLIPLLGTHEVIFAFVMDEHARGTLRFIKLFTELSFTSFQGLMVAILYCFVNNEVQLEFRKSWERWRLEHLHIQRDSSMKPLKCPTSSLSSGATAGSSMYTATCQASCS

Point of comparison: `CC(=O)N[C@@H]1COC[C@@H]1n1c(Cc2cc(F)c(-c3cccc(OCc4ccc(C#N)cc4F)n3)cc2F)nc2ccc(C(=O)O)cc21` [Example 17, 1-((3R,4S)-4-acetamidotetrahydrofuran-3-yl)-2-(4-(6-((4-cyano-2-fluorobenzyl)oxy)pyridin-2-yl)-2,5-difluorobenzyl)-1H-benzo[d]imidazole-6-carboxylic Acid], EC50 5.61 nM. Against it:
- CC(=O)N1C[C@@H](F)[C@H](n2c(Cc3cc(F)c(-c4cccc(OCc5ccc(C#N)cc5F)n4)cc3F)nc3ccc(C(=O)O)cc32)C1 [Example 40] — 28-fold higher, 155 nM

Same assay, conditions: cAMP increase in CHO cells stably expressing GLP-1R; each compound run on one of the two cAMP assays (Assay 1 or Assay 2, not specified)

Point of comparison: `COCCn1c(Cc2cc(F)c(-c3cccc(OCc4cnc(-c5cn(C)nn5)cn4)n3)cc2F)nc2ccc(C(=O)O)cc21` [Example 37, 2-(2,5-difluoro-4-(6-((5-(1-methyl-1H-1,2,3-triazol-4-yl)pyrazin-2-yl)methoxy)pyridin-2-yl)benzyl)-1-(2-methoxyethyl)-1H-benzo[d]imidazole-6-carboxylic Acid], EC50 1.97 nM. Against it:
- CC(=O)N1C[C@@H]2[C@H](n3c(Cc4cc(F)c(-c5cccc(OCc6ccc(C#N)cc6F)n5)cc4F)nc4ccc(C(=O)O)cc43)CO[C@@H]2C1 [Example 18, 1-((3S,3aR,6aS)-5-acetylhexahydro-2H-furo[2,3-c]pyrrol-3-yl)-2-(4-(6-((4-cyano-2-fluorobenzyl)oxy)pyridin-2-yl)-2,5-difluorobenzyl)-1H-benzo[d]imidazole-6-carboxylic Acid] — 25-fold higher, 49.2 nM
- N#Cc1ccc(COc2cccc(-c3cc(F)c(Cc4nc5ccc(C(=O)O)cc5n4[C@@H]4CO[C@H]5OCC[C@H]54)cc3F)n2)c(F)c1 [Example 19] — 3.3-fold lower, 0.6 nM
- N#Cc1ccc(COc2cccc(-c3cc(F)c(Cc4nc5ccc(C(=O)O)cc5n4[C@H]4CO[C@H]5OCC[C@H]54)cc3F)n2)c(F)c1 [Example 20, 2-(4-(6-((4-cyano-2-fluorobenzyl)oxy)pyridin-2-yl)-2,5-difluorobenzyl)-1-((3R,3aS,6aR)-hexahydrofuro[2,3-b]furan-3-yl)-1H-benzo[d]imidazole-6-carboxylic Acid] — 5.6-fold lower, 0.35 nM
- CC1(C)COCC1n1c(Cc2cc(F)c(-c3cccc(OCc4ccc(C(F)F)cc4F)n3)cc2F)nc2ccc(C(=O)O)cc21 (stereo not shown) [Example 21, 2-(4-(6-((4-(difluoromethyl)-2-fluorobenzyl)oxy)pyridin-2-yl)-2,5-difluorobenzyl)-1-(4,4-dimethyltetrahydrofuran-3-yl)-1H-benzo[d]imidazole-6-carboxylic Acid] — 18-fold lower, 0.11 nM
- CC(Cn1c(Cc2cc(F)c(-c3cccc(OCc4ccc(C#N)cc4F)n3)cc2F)nc2ccc(C(=O)O)cc21)OC(F)F (stereo not shown) [Example 22, 2-(4-(6-((4-cyano-2-fluorobenzyl)oxy)pyridin-2-yl)-2,5-difluorobenzyl)-1-(2-(difluoromethoxy)propyl)-1H-benzo[d]imidazole-6-carboxylic Acid] — 2.7-fold lower, 0.72 nM
- COCCn1c(Cc2cc(F)c(-c3cccc(OCc4ncc(Br)cc4F)n3)cc2F)nc2ccc(C(=O)O)cc21 [Example 23] — 2.3-fold higher, 4.57 nM
- COCCn1c(Cc2cc(F)c(-c3cccc(OCc4cnc(Cl)cn4)n3)cc2F)nc2ccc(C(=O)O)cc21 [Example 24, 2-(4-(6-((5-chloropyrazin-2-yl)methoxy)pyridin-2-yl)-2,5-difluorobenzyl)-1-(2-methoxyethyl)-1H-benzo[d]imidazole-6-carboxylic Acid] — 5.1-fold higher, 9.96 nM
- COCCn1c(Cc2cc(F)c(-c3cccc(OCc4ccc(C)nc4C)n3)cc2F)nc2ccc(C(=O)O)cc21 [Example 25] — 3.8-fold higher, 7.55 nM
- COCCn1c(Cc2cc(F)c(-c3cccc(OCc4cc(F)ccc4F)n3)cc2F)nc2ccc(C(=O)O)cc21 [Example 26, 2-(4-(6-((2,5-difluorobenzyl)oxy)pyridin-2-yl)-2,5-difluorobenzyl)-1-(2-methoxyethyl)-1H-benzo[d]imidazole-6-carboxylic Acid] — 9.5-fold higher, 18.7 nM
- COCCn1c(Cc2cc(F)c(-c3cccc(OCc4cc(F)c(F)cc4F)n3)cc2F)nc2ccc(C(=O)O)cc21 [Example 27, 2-(2,5-difluoro-4-(6-((2,4,5-trifluorobenzyl)oxy)pyridin-2-yl)benzyl)-1-(2-methoxyethyl)-1H-benzo[d]imidazole-6-carboxylic Acid] — 6.6-fold higher, 13.1 nM
- COCCn1c(Cc2cc(F)c(-c3cccc(OCc4cc(F)c(C)cc4F)n3)cc2F)nc2ccc(C(=O)O)cc21 [Example 28, 2-(4-(6-((2,5-difluoro-4-methylbenzyl)oxy)pyridin-2-yl)-2,5-difluorobenzyl)-1-(2-methoxyethyl)-1H-benzo[d]imidazole-6-carboxylic Acid] — within 1.5-fold, 1.46 nM
- COCCn1c(Cc2cc(F)c(-c3cccc(OCc4cnc(C)cn4)n3)cc2F)nc2ccc(C(=O)O)cc21 [Example 29, 2-(2,5-difluoro-4-(6-((5-methylpyrazin-2-yl)methoxy)pyridin-2-yl)benzyl)-1-(2-methoxyethyl)-1H-benzo[d]imidazole-6-carboxylic Acid] — 18-fold higher, 36 nM
- COCCn1c(Cc2cc(F)c(-c3cccc(OCc4ccc5nccn5c4)n3)cc2F)nc2ccc(C(=O)O)cc21 [Example 30, 2-(2,5-difluoro-4-(6-(imidazo[1,2-a]pyridin-6-ylmethoxy)pyridin-2-yl)benzyl)-1-(2-methoxyethyl)-1H-benzo[d]imidazole-6-carboxylic Acid] — 25-fold higher, 49.9 nM
- COCCn1c(Cc2cc(F)c(-c3cccc(OCc4ncc(F)cc4F)n3)cc2F)nc2ccc(C(=O)O)cc21 [Example 31, 2-(4-(6-((3,5-difluoropyridin-2-yl)methoxy)pyridin-2-yl)-2,5-difluorobenzyl)-1-(2-methoxyethyl)-1H-benzo[d]imidazole-6-carboxylic Acid] — 15-fold higher, 30.4 nM
- COCCn1c(Cc2cc(F)c(-c3cccc(OCc4ccc(OC(F)(F)F)cc4)n3)cc2F)nc2ccc(C(=O)O)cc21 [Example 32, 2-(2,5-difluoro-4-(6-((4-(trifluoromethoxy)benzyl)oxy)pyridin-2-yl)benzyl)-1-(2-methoxyethyl)-1H-benzo[d]imidazole-6-carboxylic Acid] — 1.7-fold higher, 3.43 nM
- COCCn1c(Cc2cc(F)c(-c3cccc(OCc4ccc(C(F)(F)F)nc4C)n3)cc2F)nc2ccc(C(=O)O)cc21 [Example 33, 2-(2,5-difluoro-4-(6-((2-methyl-6-(trifluoromethyl)pyridin-3-yl)methoxy)pyridin-2-yl)benzyl)-1-(2-methoxyethyl)-1H-benzo[d]imidazole-6-carboxylic Acid] — within 1.5-fold, 2.58 nM
- COCCn1c(Cc2cc(F)c(-c3cccc(OCc4ccc(C(F)(F)F)nc4Cl)n3)cc2F)nc2ccc(C(=O)O)cc21 [Example 34, 2-(4-(6-((2-chloro-6-(trifluoromethyl)pyridin-3-yl)methoxy)pyridin-2-yl)-2,5-difluorobenzyl)-1-(2-methoxyethyl)-1H-benzo[d]imidazole-6-carboxylic Acid] — 1.6-fold higher, 3.25 nM
- COCCn1c(Cc2cc(F)c(-c3cccc(OCc4ccc(OCC(F)(F)F)nc4)n3)cc2F)nc2ccc(C(=O)O)cc21 [Example 35, 2-(2,5-difluoro-4-(6-((6-(2,2,2-trifluoroethoxy)pyridin-3-yl)methoxy)pyridin-2-yl)benzyl)-1-(2-methoxyethyl)-1H-benzo[d]imidazole-6-carboxylic Acid] — within 1.5-fold, 2.67 nM
- COCCn1c(Cc2cc(F)c(-c3cccc(OCc4cnc(-c5cnn(C(F)F)c5)cn4)n3)cc2F)nc2ccc(C(=O)O)cc21 [Example 36] — 1.9-fold lower, 1.04 nM
- COCCn1c(Cc2cc(F)c(-c3cccc(OCc4cnc(-c5cnn(C)c5)cn4)n3)cc2F)nc2ccc(C(=O)O)cc21 [Example 38, 2-(2,5-difluoro-4-(6-((5-(1-methyl-1H-pyrazol-4-yl)pyrazin-2-yl)methoxy)pyridin-2-yl)benzyl)-1-(2-methoxyethyl)-1H-benzo[d]imidazole-6-carboxylic Acid] — 2-fold higher, 4.02 nM
- COCCn1c(Cc2cc(F)c(-c3cccc(OCc4ncc(C#N)cc4F)n3)cc2F)nc2ccc(C(=O)O)cc21 [Example 39] — 4.6-fold higher, 8.98 nM
- COCCn1c(Cc2cc(F)c(-c3cc(C(F)F)cc(OCc4ccc(C#N)cc4F)n3)cc2F)nc2ccc(C(=O)O)cc21 [Example 41] — 2.5-fold higher, 4.88 nM
- COCCn1c(Cc2cc(F)c(-c3cc(Cl)cc(OCc4ccc(C#N)cc4F)n3)cc2F)nc2ccc(C(=O)O)cc21 [Example 42, 2-(4-(4-chloro-6-((4-cyano-2-fluorobenzyl)oxy)pyridin-2-yl)-2,5-difluorobenzyl)-1-(2-methoxyethyl)-1H-benzo[d]imidazole-6-carboxylic Acid] — 2.2-fold higher, 4.25 nM
- COCCn1c(Cc2cc(F)c(-c3cc(OC)cc(OCc4ccc(C#N)cc4F)n3)cc2F)nc2ccc(C(=O)O)cc21 [Example 43, 2-(4-(6-((4-cyano-2-fluorobenzyl)oxy)-4-methoxypyridin-2-yl)-2,5-difluorobenzyl)-1-(2-methoxyethyl)-1H-benzo[d]imidazole-6-carboxylic Acid] — 11-fold higher, 20.8 nM
- COCCn1c(Cc2cc(F)c(-c3cc(O)cc(OCc4ccc(C#N)cc4F)n3)cc2F)nc2ccc(C(=O)O)cc21 [Example 44, 2-(4-(6-((4-cyano-2-fluorobenzyl)oxy)-4-hydroxypyridin-2-yl)-2,5-difluorobenzyl)-1-(2-methoxyethyl)-1H-benzo[d]imidazole-6-carboxylic Acid] — 2.4-fold lower, 0.81 nM
- COCCn1c(Cc2cc(F)c(-c3cc(N)nc(OCc4ccc(C#N)cc4F)n3)cc2F)nc2ccc(C(=O)O)cc21 [Example 45, 2-(4-(6-amino-2-((4-cyano-2-fluorobenzyl)oxy)pyrimidin-4-yl)-2,5-difluorobenzyl)-1-(2-methoxyethyl)-1H-benzo[d]imidazole-6-carboxylic Acid] — 8.5-fold higher, 16.7 nM
- COCCn1c(Cc2ccc(-c3cccc(OCc4ccc(C#N)cc4F)c3)nc2)nc2ccc(C(=O)O)cc21 [Example 46] — 11-fold higher, 20.9 nM
- CC(C)(O)C#Cc1cc(C(=O)O)cc2c1nc(Cc1cc(F)c(-c3cccc(OCc4ccc(C#N)cc4F)n3)cc1F)n2C1COCC1(C)C (stereo not shown) [Example 47] — 2.5-fold lower, 0.78 nM
